The nature of this test: Antioxidant activity in egg yolk liposomes assessed as inhibition of ADP/Fe(2+)-induced lipid peroxidation after 15 mins by TBARS method. Format: functional.

Data on two compounds can be found in ChEMBL document CHEMBL1146573, “Antioxidant activity of a new capsaicin derivative from Capsicum annuum” (J Nat Prod, 2003).

pIC50: −log10 of the molar value.

By pIC50 is commonly meant the IC50 on a negative log10 scale, so that one unit is a factor of ten. Take `COc1cc(CNC(=O)CCCC/C=C/C(C)C)cc(-c2cc(CNC(=O)CCCCCCC(C)C)cc(OC)c2O)c1O`: the pIC50 is < 5.00.
As for `Cc1c(C)c2c(c(C)c1O)CC[C@@](C)(CCC[C@H](C)CCC[C@H](C)CCCC(C)C)O2` [ALPHA-TOCOPHEROL], the figure is 3.60.
